Measurements as given in US12583858B2 (Genentech, Inc., priority 2015, dated 2026).
pEC50: −log10 of the molar value.

Each compound was assayed against T1, TDO2 (Homo sapiens, UniProt P48775) (assay: TDO2 cell assay (NFK GreenScreen, SW48 cells)). Details: SW48 cells (high TDO expressing), 200 uM tryptophan, 24 hours; Table 3; read-out: TDO2 Cell Fluor EC50.
T1 construct: decreased levels of NFK in SW48 cells (high TDO expressing cells)
Format: cell-based

T1 sequence (P48775 whole entry): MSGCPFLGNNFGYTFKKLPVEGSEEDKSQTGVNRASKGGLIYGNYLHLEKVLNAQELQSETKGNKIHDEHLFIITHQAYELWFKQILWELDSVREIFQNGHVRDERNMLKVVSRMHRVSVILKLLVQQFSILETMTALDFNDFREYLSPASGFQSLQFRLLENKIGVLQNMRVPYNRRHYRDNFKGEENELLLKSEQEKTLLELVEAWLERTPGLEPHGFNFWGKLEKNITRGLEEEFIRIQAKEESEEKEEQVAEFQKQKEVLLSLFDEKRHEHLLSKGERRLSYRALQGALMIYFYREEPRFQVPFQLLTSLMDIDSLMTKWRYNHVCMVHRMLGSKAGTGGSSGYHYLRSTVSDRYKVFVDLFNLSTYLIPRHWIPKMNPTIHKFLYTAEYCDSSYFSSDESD

pEC50 | SMILES
7.08 | O[C@@H]1CCCC[C@H]1[C@H]1c2ccccc2-c2cncn21 [Example 03b, (1R,2S)-2-((S)-5H-imidazo[5,1-a]isoindol-5-yl)cyclohexan-1-ol]
6.89 | CC1(C)OCC(C2c3ccccc3-c3cncn32)C1O (single isomer, unassigned) [Example 85b]
6.92 | Nc1ncc2c(n1)CCC(C1c3ccccc3-c3cncn31)C2O (single isomer, unassigned) [Example 111b]
7.34 | OC1CC2(CCC2)C1C1c2ccccc2-c2cncn21 (single isomer, unassigned) [Example 67f]
7.11 | OC1C(C2c3ccccc3-c3cncn32)CC12CCOCC2 (single isomer, unassigned) [Example 57e]
< 4.60 | OC1c2cncn2CCC1C1c2ccccc2-c2cncn21 (single isomer, unassigned) [Example 07b]
6.34 | NS(=O)(=O)c1ccc2c(c1)C(O)C(C1c3ccccc3-c3cncn31)CC2 (single isomer, unassigned) [Example 105e]
5.92 | Cn1cc2c(n1)CCC(C1c3ccccc3-c3cncn31)C2O (single isomer, unassigned) [Example 130f]
5.51 | OC1c2cncnc2CCC1C1c2ccccc2-c2cncn21 (single isomer, unassigned) [Example 94b]
5.96 | O[C@H]1CC[C@@H]1[C@H]1c2ccccc2-c2cncn21 [Example 01e, (1S,2R)-2-((S)-5H-imidazo[5,1-a]isoindol-5-yl)cyclobutan-1-ol]
5.96 | CC1(C)C[C@@H](O)[C@H]1[C@H]1c2ccccc2-c2cncn21 (single isomer, unassigned) [Example 22f]
4.82 | OC1COCC1C1c2ccc(F)cc2-c2cncn21 (single isomer, unassigned) [Example 30b]
4.80 | OC1CC2(CCC2)C1C1c2ccccc2-c2cncn21 (single isomer, unassigned) [Example 67h]
6.09 | CC1(C)CC(O)(C2c3ccccc3-c3cncn32)C1 (racemic) [Example 147a, 1-(5H-imidazo[5,1-a]isoindol-5-yl)-3,3-dimethylcyclobutan-1-ol]
6.64 | O[C@@H]1CCOC[C@H]1[C@@H]1c2ccc(F)cc2-c2cncn21 [Example 34d, (3R,4R)-3-((R)-8-fluoro-5H-imidazo[5,1-a]isoindol-5-yl)-tetrahydro-2H-pyran-4-ol]
< 4.60 | CC1(C)COC[C@@H]([C@H]2c3ccccc3-c3cncn32)[C@H]1O [Example 66a, (4R,5R)-5-((S)-5H-imidazo[5,1-a]isoindol-5-yl)-3,3-dimethyltetrahydro-2H-pyran-4-ol]
4.72 | CS(=O)(=O)c1ccc2c(c1)CCC(C1c3ccccc3-c3cncn31)C2O (single isomer, unassigned) [Example 36g]
< 4.60 | CC(C)(C(N)=O)C(O)C1c2ccccc2-c2cncn21 (single isomer, unassigned) [Example 155d]
< 4.60 | CC(C)C(O)C1c2ccccc2-c2cncn21 (single isomer, unassigned) [Example 51b]
5.23 | CS(=O)(=O)c1ccc2c(c1)[C@@H](O)[C@H]([C@H]1c3ccccc3-c3cncn31)CC2 (single isomer, unassigned) [Example 142b]
6.41 | CCS(=O)(=O)N1CCC2(CC1)CC(C1c3ccccc3-c3cncn31)C2O (single isomer, unassigned) [Example 114a]
< 4.60 | OC1(C2c3ccccc3-c3cncn32)CCCc2ccncc21 (single isomer, unassigned) [Example 141d]
4.80 | O[C@H]1c2cccnc2CC[C@@H]1[C@@H]1c2ccc(F)cc2-c2cncn21 (single isomer, unassigned) [Example 169b]
5.27 | O[C@H]1c2ccccc2CC[C@@H]1[C@@H]1c2ccccc2-c2cncn21 [Example 102f, (1R,2R)-2-((R)-5H-imidazo[5,1-a]isoindol-5-yl)-1,2,3,4-tetrahydronaphthalen-1-ol]
6.05 | O[C@H]1COCC[C@H]1[C@H]1c2ccccc2-c2cncn21 [Example 06f, (3R,4S)-4-((S)-5H-imidazo[5,1-a]isoindol-5-yl)tetrahydro-2H-pyran-3-ol]
6.44 | CS(=O)(=O)c1ccc2c(c1)OCC(C1c3ccccc3-c3cncn31)C2O (single isomer, unassigned) [Example 91d]

Further lines, the compound ahead of its results:

SMILES | pEC50
OC1c2cccn2CC[C@H]1C1c2ccccc2-c2cncn21 (stereo in doubt) [Example 136f, (7S,8S)-7-((R)-5H-imidazo[5,1-a]isoindol-5-yl)-5,6,7,8-tetrahydroindolizin-8-ol] | 6.44
CCS(=O)(=O)N1CCC2(CC1)C[C@@H]([C@@H]1c3ccccc3-c3cncn31)[C@@H]2O [Example 114b, (1S,2S)-7-(ethylsulfonyl)-2-((R)-5H-imidazo[5,1-a]isoindol-5-yl)-7-azaspiro[3.5]nonan-1-ol] | < 4.60
NS(=O)(=O)c1ccc2c(c1)CCC(C1c3ccccc3-c3cncn31)C2O (single isomer, unassigned) [Example 100e] | 5.89
OC1C(C2c3ccccc3-c3cncn32)CCC12CCOCC2 (single isomer, unassigned) [Example 68e] | 6.57
NC(=O)c1nc2c(s1)CCC(C1c3ccccc3-c3cncn31)C2O (single isomer, unassigned) [Example 149c] | 6.82
Cc1cnn2c1C(O)C(C1c3ccccc3-c3cncn31)CC2 (single isomer, unassigned) [Example 159a] | 6.57
CN(C)C(=O)c1ccc2c(c1)CCC(C1c3ccccc3-c3cncn31)C2O (single isomer, unassigned) [Example 98b] | 5.06
NC(=O)C1CCC(O)(C2c3ccccc3-c3cncn32)CC1 (single isomer, unassigned) [Example 140b] | < 4.60
OC1CC2(COC2)C1C1c2ccccc2-c2cncn21 (single isomer, unassigned) [Example 87c] | 5.22
NS(=O)(=O)c1ccc2c(c1)C(O)C(C1c3ccccc3-c3cncn31)CC2 (single isomer, unassigned) [Example 105g] | 5.04
Cc1ccc2c(c1)C(C1COCC1O)n1cncc1-2 (single isomer, unassigned) [Example 110a] | 6.28
CC(C)(C)OC(=O)N1CCC(C2c3ccccc3-c3cncn32)C(O)C1 (single isomer, unassigned) [Example 10b, tert-butyl 3-hydroxy-4-(5H-imidazo[5,1-a]isoindol-5-yl)piperidine-1-carboxylate] | < 4.60
OC1CC2(CCC2)C1C1c2ccccc2-c2cncn21 (single isomer, unassigned) [Example 67d] | 6.62
O[C@@H]1CN(C2COC2)CC[C@H]1[C@H]1c2ccccc2-c2cncn21 [Example 103, (3S,4S)-4-((S)-5H-imidazo[5,1-a]isoindol-5-yl)-1-(oxetan-3-yl)piperidin-3-ol] | 4.92
CC(C)(C)OC(=O)N1CCC(O)C(C2c3ccccc3-c3cncn32)C1 (single isomer, unassigned) [Example 11d, tert-butyl 4-hydroxy-3-(5H-imidazo[5,1-a]isoindol-5-yl)piperidine-1-carboxylate] | 4.66
N#Cc1cnc2c(c1)CCC(C1c3ccccc3-c3cncn31)C2O (single isomer, unassigned) [Example 107a] | 4.77
CC(C)C(O)C1c2ccc(F)cc2-c2cncn21 (single isomer, unassigned) [Example 135d] | 6.89

SMILES | pEC50
OC(C1c2ccccc2-c2cncn21)C1(F)CC1 (single isomer, unassigned) [Example 154d] | 4.89
CC(C)C(O)C1c2ccc(F)cc2-c2cncn21 (single isomer, unassigned) [Example 135c] | 5.52
NS(=O)(=O)N1CCC2(CC1)CC(C1c3ccccc3-c3cncn31)C2O (single isomer, unassigned) [Example 181a] | 6.18
OC1CC2(COC2)C1C1c2ccccc2-c2cncn21 (single isomer, unassigned) [Example 87e] | 4.85
OC1c2cnccc2CC1C1c2ccccc2-c2cncn21 (single isomer, unassigned) [Example 71b] | 6.20
CC1(C)OC(C)(C)C(C2c3ccccc3-c3cncn32)C1O (single isomer, unassigned) [Example 84c] | 4.89
O=c1cccc2n1CCC(C1c3ccccc3-c3cncn31)C2O (single isomer, unassigned) [Example 29b, 1-hydroxy-2-(5H-imidazo[5,1-a]isoindol-5-yl)-3,4-dihydro-1H-quinolizin-6(2H)-one] | 6.17
CC1(C)OC(C)(C)C(C2c3ccccc3-c3cncn32)C1O (single isomer, unassigned) [Example 84d] | 5.44
OC1CCCOCC1C1c2ccccc2-c2cncn21 (single isomer, unassigned) [Example 86f] | 6.82
O[C@@H]1COCC[C@H]1[C@@H]1c2c(F)cccc2-c2cncn21 (single isomer, unassigned) [Example 120c] | 4.85
CC(C)(C(N)=O)C(O)C1c2ccccc2-c2cncn21 (single isomer, unassigned) [Example 155c] | 4.68
OC1(C2c3ccccc3-c3cncn32)CCCOC1 (single isomer, unassigned) [Example 144b] | < 4.60
OC(C1CC1)C1c2ccccc2-c2cncn21 (single isomer, unassigned) [Example 52b] | 4.63
CS(=O)(=O)N1CCC(C2c3ccc(F)cc3-c3cncn32)C(O)C1 (single isomer, unassigned) [Example 119c] | 6.66
OC1(C2c3ccccc3-c3cncn32)CCOC1 (single isomer, unassigned) [Example 129c] | 5.35
NS(=O)(=O)c1ccc2c(c1)C(O)C(C1c3ccccc3-c3cncn31)CC2 (single isomer, unassigned) [Example 105c] | 7.11
NS(=O)(=O)c1ccc2c(c1)CCC(C1c3ccccc3-c3cncn31)C2O (single isomer, unassigned) [Example 100c] | 5.13
